Data taken from ChEMBL document CHEMBL1133387, “Secondary amines as new pharmacophores for macrofilaricidal drug design” (2000).

Key:
Type in all cases: functional
Acanthocheilonema viteae [1] = experiment: Compound was tested in vivo for anti-filarial activity against A. viteae through oral route of administration at 200 mg/kg for 5 days and macrofilaricidal response was observed
Acanthocheilonema viteae [2] = experiment: Compound was tested in vivo for anti-filarial activity against A. viteae through oral route of administration at 200 mg/kg for 5 days and microfilaricidal response was observed
Acanthocheilonema viteae [3] = experiment: Compound was tested in vivo for anti-filarial activity against A. viteae through oral route of administration at 200 mg/kg for 5 days and sterilization of female worms was observed
Acanthocheilonema viteae [4] = experiment: Compound was tested in vivo for anti-filarial activity against A. viteae through oral route of administration at 200 mg/kg for 5 days and sterilization of inactive worms was observed

Q: For CCCCCCCNc1ccccc1, which Reduction (Acanthocheilonema viteae [1]) is on record?
A: 0%

Q: What about the Reduction (Acanthocheilonema viteae [2]) of the same compound?
A: 69%

Q: What about the Activity (Acanthocheilonema viteae [3]) of the same compound?
A: 0%

Q: With CCCCNc1ccc(F)c(Cl)c1 as the compound, how does the Reduction (Acanthocheilonema viteae [1]) read?
A: 0%

Q: And the Reduction (Acanthocheilonema viteae [2])?
A: 32%

Q: What about the Activity (Acanthocheilonema viteae [4]) of the same compound?
A: 0%

Q: CCCCCCNc1ccc(F)cc1 was tested. Which Reduction (Acanthocheilonema viteae [1]) did it give?
A: 50%

Q: And the Reduction (Acanthocheilonema viteae [2])?
A: 0%

Q: What about the Activity (Acanthocheilonema viteae [3]) of the same compound?
A: 0%

Q: What does the source list for CCCCN(CCCC)c1ccc(F)cc1?
A: Reduction (Acanthocheilonema viteae [1]): 0%; Reduction (Acanthocheilonema viteae [2]): 81%; Activity (Acanthocheilonema viteae [4]): 50%

Q: What does the source list for CCCCN(CCCC)c1ccccc1?
A: Reduction (Acanthocheilonema viteae [1]): 0%; Reduction (Acanthocheilonema viteae [2]): 77%; Activity (Acanthocheilonema viteae [4]): 55%

Q: With CCCCCCNc1ccc(F)c(Cl)c1 as the compound, how does the Reduction (Acanthocheilonema viteae [1]) read?
A: 88%

Q: And the Reduction (Acanthocheilonema viteae [2])?
A: 50%

Q: And the Activity (Acanthocheilonema viteae [3])?
A: 0%

Q: Which Reduction (Acanthocheilonema viteae [1]) does the source give for CCCCCCNc1ccccc1 here?
A: 50%

Q: And the Reduction (Acanthocheilonema viteae [2])?
A: 58%

Q: What about the Activity (Acanthocheilonema viteae [3]) of the same compound?
A: 0%

Q: How did the Reduction (Acanthocheilonema viteae [1]) turn out when CCCCN(CCCC)C1CCCCC1 was run?
A: 0%

Q: What about the Reduction (Acanthocheilonema viteae [2]) of the same compound?
A: 93%

Q: What about the Activity (Acanthocheilonema viteae [3]) of the same compound?
A: 50%

Q: How did the Reduction (Acanthocheilonema viteae [1]) turn out when CCCCCCNC1CCCCC1 was run?
A: 100%

Q: And the Reduction (Acanthocheilonema viteae [2])?
A: 0%

Q: What about the Activity (Acanthocheilonema viteae [3]) of the same compound?
A: 0%
